Experimental data published in PubChem BioAssay (NCI).
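A five-concentration, 48-hour dose response in 96-well plates underlies each endpoint, interpolated linearly between surrounding concentrations. The concentration for 50% growth inhibition is given as GI50. TGI: total growth inhibition.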

Legend:
Assay in all cases: NCI-60 cell line screen, 48 h
SNB-19 CNS = system: SNB-19 CNS
M14 melanoma = system: M14 melanoma
A498 renal = system: A498 renal
K-562 leukemia = system: K-562 leukemia
SK-MEL-2 melanoma = system: SK-MEL-2 melanoma
UACC-62 melanoma = system: UACC-62 melanoma
NCI-H226 lung = system: NCI-H226 lung
HT29 colon = system: HT29 colon
OVCAR-5 ovarian = system: OVCAR-5 ovarian
UACC-257 melanoma = system: UACC-257 melanoma
SF-539 CNS = system: SF-539 CNS
IGROV1 ovarian = system: IGROV1 ovarian
UO-31 renal = system: UO-31 renal
SK-OV-3 ovarian = system: SK-OV-3 ovarian
KM12 colon = system: KM12 colon
SK-MEL-28 melanoma = system: SK-MEL-28 melanoma
SK-MEL-5 melanoma = system: SK-MEL-5 melanoma
EKVX NSCLC = system: EKVX NSCLC
COLO 205 colon = system: COLO 205 colon
NCI-H522 lung = system: NCI-H522 lung
NCI-H23 lung = system: NCI-H23 lung
DU-145 prostate = system: DU-145 prostate
HL-60(TB) leukemia = system: HL-60(TB) leukemia
SW-620 colon = system: SW-620 colon
SF-295 CNS = system: SF-295 CNS
ACHN renal = system: ACHN renal
T-47D breast = system: T-47D breast
MDA-MB-435 = system: MDA-MB-435
TK-10 renal = system: TK-10 renal
MDA-MB-231 breast = system: MDA-MB-231 breast
NCI/ADR-RES ovarian = system: NCI/ADR-RES ovarian
SN12C renal = system: SN12C renal
LOX IMVI melanoma = system: LOX IMVI melanoma
A549 NSCLC = system: A549 NSCLC
OVCAR-4 ovarian = system: OVCAR-4 ovarian
SNB-75 CNS = system: SNB-75 CNS
HOP-62 NSCLC = system: HOP-62 NSCLC
CCRF-CEM leukemia = system: CCRF-CEM leukemia
HCT-15 colon = system: HCT-15 colon
MALME-3M melanoma = system: MALME-3M melanoma
HCT-116 colon = system: HCT-116 colon
OVCAR-3 ovarian = system: OVCAR-3 ovarian
PC-3 prostate = system: PC-3 prostate
786-0 renal = system: 786-0 renal
HCC-2998 colon = system: HCC-2998 colon
SR leukemia = system: SR leukemia
CAKI-1 renal = system: CAKI-1 renal
SF-268 CNS = system: SF-268 CNS
HS 578T breast = system: HS 578T breast
BT-549 breast = system: BT-549 breast
U251 CNS = system: U251 CNS
RXF 393 renal = system: RXF 393 renal
NCI-H460 lung = system: NCI-H460 lung
OVCAR-8 ovarian = system: OVCAR-8 ovarian
HOP-92 NSCLC = system: HOP-92 NSCLC
MCF7 breast = system: MCF7 breast

`COc1cc2nc(N3CCCC3)nc(NCC3CCCCC3)c2cc1OC` gave a GI50 (SNB-19 CNS) of 1590 nM, a TGI (SNB-19 CNS) of 2990 nM and a GI50 (M14 melanoma) of 1440 nM. For the same molecule, the TGI (M14 melanoma) was 2880 nM, the GI50 (A498 renal) was 1110 nM and the TGI (A498 renal) was 2470 nM. The GI50 (K-562 leukemia) was 334 nM, the TGI (K-562 leukemia) was 2100 nM and the GI50 (SK-MEL-2 melanoma) was 1860 nM. The TGI (SK-MEL-2 melanoma) was 3510 nM, the GI50 (UACC-62 melanoma) was 1740 nM and the TGI (UACC-62 melanoma) was 3210 nM. It also gave a GI50 (NCI-H226 lung) of 1940 nM, a TGI (NCI-H226 lung) of 4050 nM and a GI50 (HT29 colon) of 435 nM. It also gave a TGI (HT29 colon) of 1690 nM, a GI50 (OVCAR-5 ovarian) of 1590 nM and a TGI (OVCAR-5 ovarian) of 2960 nM. The GI50 (UACC-257 melanoma) was 364 nM, the TGI (UACC-257 melanoma) was 1360 nM and the GI50 (SF-539 CNS) was 817 nM. It also gave a TGI (SF-539 CNS) of 2150 nM, a GI50 (IGROV1 ovarian) of 1480 nM and a TGI (IGROV1 ovarian) of 3060 nM. For the same molecule, the GI50 (UO-31 renal) was 1100 nM, the TGI (UO-31 renal) was 2380 nM and the GI50 (SK-OV-3 ovarian) was 1750 nM. The TGI (SK-OV-3 ovarian) was 3240 nM, the GI50 (KM12 colon) was 1630 nM and the TGI (KM12 colon) was 3130 nM. It also gave a GI50 (SK-MEL-28 melanoma) of 1550 nM, a TGI (SK-MEL-28 melanoma) of 2910 nM and a GI50 (SK-MEL-5 melanoma) of 1350 nM. For the same molecule, the TGI (SK-MEL-5 melanoma) was 2680 nM, the GI50 (EKVX NSCLC) was 1450 nM and the TGI (EKVX NSCLC) was 2910 nM. For the same molecule, the GI50 (COLO 205 colon) was 223 nM, the TGI (COLO 205 colon) was 499 nM and the GI50 (NCI-H522 lung) was 1560 nM. It also gave a TGI (NCI-H522 lung) of 3290 nM, a GI50 (NCI-H23 lung) of 1570 nM and a TGI (NCI-H23 lung) of 3070 nM. For the same molecule, the GI50 (DU-145 prostate) was 1510 nM, the TGI (DU-145 prostate) was 2920 nM and the GI50 (HL-60(TB) leukemia) was 505 nM. It also gave a TGI (HL-60(TB) leukemia) of 2210 nM, a GI50 (SW-620 colon) of 1390 nM and a TGI (SW-620 colon) of 2890 nM. For the same molecule, the GI50 (SF-295 CNS) was 1380 nM, the TGI (SF-295 CNS) was 2710 nM and the GI50 (ACHN renal) was 1440 nM. For the same molecule, the TGI (ACHN renal) was 2750 nM, the GI50 (T-47D breast) was 1450 nM and the TGI (T-47D breast) was 3510 nM. For the same molecule, the GI50 (MDA-MB-435) was 1110 nM, the TGI (MDA-MB-435) was 2330 nM and the GI50 (TK-10 renal) was 1730 nM. It also gave a TGI (TK-10 renal) of 3280 nM, a GI50 (MDA-MB-231 breast) of 1530 nM and a TGI (MDA-MB-231 breast) of 3040 nM. It also gave a GI50 (NCI/ADR-RES ovarian) of 1510 nM, a TGI (NCI/ADR-RES ovarian) of 3470 nM and a GI50 (SN12C renal) of 1480 nM. The TGI (SN12C renal) was 2910 nM, the GI50 (LOX IMVI melanoma) was 281 nM and the TGI (LOX IMVI melanoma) was 793 nM. The GI50 (A549 NSCLC) was 1520 nM, the TGI (A549 NSCLC) was 3250 nM and the GI50 (OVCAR-4 ovarian) was 1250 nM. It also gave a TGI (OVCAR-4 ovarian) of 2710 nM, a GI50 (SNB-75 CNS) of 1470 nM and a TGI (SNB-75 CNS) of 2810 nM. The GI50 (HOP-62 NSCLC) was 1560 nM, the TGI (HOP-62 NSCLC) was 3200 nM and the GI50 (CCRF-CEM leukemia) was 1090 nM. The TGI (CCRF-CEM leukemia) was 3500 nM, the GI50 (HCT-15 colon) was 505 nM and the TGI (HCT-15 colon) was 1800 nM. The GI50 (MALME-3M melanoma) was 1240 nM, the TGI (MALME-3M melanoma) was 2550 nM and the GI50 (HCT-116 colon) was 805 nM. The TGI (HCT-116 colon) was 2210 nM, the GI50 (OVCAR-3 ovarian) was 1550 nM and the TGI (OVCAR-3 ovarian) was 2990 nM. The GI50 (PC-3 prostate) was 1130 nM, the TGI (PC-3 prostate) was 2830 nM and the GI50 (786-0 renal) was 1470 nM. For the same molecule, the TGI (786-0 renal) was 3110 nM, the GI50 (HCC-2998 colon) was 444 nM and the TGI (HCC-2998 colon) was 1620 nM. The GI50 (SR leukemia) was 254 nM, the TGI (SR leukemia) was 1080 nM and the GI50 (CAKI-1 renal) was 1340 nM. For the same molecule, the TGI (CAKI-1 renal) was 2640 nM, the GI50 (SF-268 CNS) was 1750 nM and the TGI (SF-268 CNS) was 3450 nM. It also gave a GI50 (HS 578T breast) of 1790 nM, a TGI (HS 578T breast) of 3710 nM and a GI50 (BT-549 breast) of 1410 nM. It also gave a TGI (BT-549 breast) of 2780 nM, a GI50 (U251 CNS) of 1210 nM and a TGI (U251 CNS) of 2640 nM. The GI50 (RXF 393 renal) was 1070 nM, the TGI (RXF 393 renal) was 2490 nM and the GI50 (NCI-H460 lung) was 1750 nM. The TGI (NCI-H460 lung) was 3350 nM, the GI50 (OVCAR-8 ovarian) was 1590 nM and the TGI (OVCAR-8 ovarian) was 3520 nM. For the same molecule, the GI50 (HOP-92 NSCLC) was 1110 nM, the TGI (HOP-92 NSCLC) was 2460 nM and the GI50 (MCF7 breast) was 515 nM. For the same molecule, the TGI (MCF7 breast) was 2030 nM.
